Assay results published in PMC5365645, “Preclinical Pharmacokinetics and Pharmacodynamic Target of SCY-078, a First-in-Class Orally Active Antifungal Glucan Synthesis Inhibitor, in Murine Models of Disseminated Candidiasis” (Antimicrobial Agents and Chemotherapy, 2017).
Where two headings read alike, the source gives them in different places. *1 amine or outer side, *2 acyl side, *3 side chain or, on linkers, in order; H or OH if unused. Where a SMILES comes first, the peptide text is derived from it. Bridges are numbered along the chain shown (N, C = ends). [ ]: non-standard residue; d: D form. The star is where a group is joined. hTyr(3S-OH,4S-OH,3'-OSO3H) = N[C@H](C(=O)O)[C@H](O)[C@@H](O)c1ccc(O)c(OS(=O)(=O)O)c1; pTerphenylCO(4''-OnC5H11) = CCCCCOc1ccc(-c2ccc(-c3ccc(C(=O)*)cc3)cc2)cc1; Orn(4R-OH,5R-OH) = O=C([C@H](C[C@@H](O)[C@@H](O)N[*:3])N[*:1])[*:2]; hTyr(3S-OH,4S-OH) = N[C@H](C(=O)O)[C@H](O)[C@@H](O)c1ccc(O)cc1; Pro(3S-OH,4S-Me) = C[C@H]1CN[C@H](C(=O)O)[C@H]1O; X1 = CCCCCOc1ccc(-c2cc(-c3ccc(C(=O)*)cc3)no2)cc1; Gln(3R-OH) = NC(=O)C[C@@H](O)[C@H](N)C(=O)O; Hyp = O=C(O)[C@@H]1C[C@@H](O)CN1

Experiments:
[1] = Volume of distribution after i.v. administration (literature); conditions: in vivo, iv, Rat, calculated using previously published data ref 17, read-out: Vd ss
From the text: TABLE 7 Volume of distribution for SCY-078 and echinocandins after i.v. administration | column: Vd ss (liters/kg)^a / Anidulafungin

[2] = Rabbit, cited from earlier work
[3] = Human, cited from earlier work
[4] = cited from earlier work
[5] = Mouse, cited from earlier work
C. albicans MY1055 = assay: Immediate treatment murine model of disseminated candidiasis
[6] = Rat, i.v. ref 26; cited from earlier work
[7] = set-up: method as in ref 26 = [26]; 26. Yamato Y , Kaneko H , Hashimoto T , Katashima M , Ishibashi K , Kawamura A , Terakawa M , Kagayama A 2002 Pharmacokinetics of the anti-fungal drug micafungin in mice, rats and dogs, and its in vit; conditions: Dog, i.v. ref 26; cited from earlier work

CCCCCOc1ccc(-c2ccc(-c3ccc(C(=O)N[C@H]4C[C@@H](O)[C@@H](O)NC(=O)[C@@H]5[C@@H](O)[C@@H](C)CN5C(=O)[C@H]([C@@H](C)O)NC(=O)[C@H]([C@H](O)[C@@H](O)c5ccc(O)cc5)NC(=O)[C@@H]5C[C@@H](O)CN5C(=O)[C@H]([C@@H](C)O)NC4=O)cc3)cc2)cc1 [Anidulafungin, anidulafungin] ({pTerphenylCO(4''-OnC5H11)}-[Orn(4R-OH,5R-OH)]T[Hyp][hTyr(3S-OH,4S-OH)]T[Pro(3S-OH,4S-Me)]; lactam 1-C)
Vd [1]: 2.16 L/kg
Vd ss ([2]; i.v. ref 28): 0.93–1.23 ([28]) liters/kg
Vd ss ([3]; i.v. ref 31): 0.5 L/kg
Kidney/plasma ratio ([4]; after i.v. delivery to rodents ref 17): 10.7

CC[C@H](C)C[C@H](C)CCCCCCCCC(=O)N[C@H]1C[C@@H](O)[C@@H](NCCN)NC(=O)[C@@H]2[C@@H](O)CCN2C(=O)[C@H]([C@H](O)CCN)NC(=O)[C@H]([C@H](O)[C@@H](O)c2ccc(O)cc2)NC(=O)[C@@H]2C[C@@H](O)CN2C(=O)[C@H]([C@@H](C)O)NC1=O [Caspofungin, caspofungin]
Vd ss ([5]; i.v. ref 22): 0.25 L/kg
Vd ss ([5]; i.v. ref 25): 0.45 L/kg
Vd ss ([2]; i.v. ref 25): 0.28 L/kg
Vd ss ([2]; i.v. ref 29): 0.26 L/kg
Vd ss ([3]; i.v. ref 31): 0.14 ([31]) liters/kg
Kidney/plasma ratio ([4]; after i.v. delivery to rodents ref 22): approximately 2.9
Kidney/plasma ratio ([4]; after i.v. delivery to rodents, based on the total radioactivity over 24 h ref 23): 2.8
Dose effective in clearing kidney fungal burden (C. albicans MY1055; administered intraperitoneally twice daily (data not shown)): ≥ 0.125 mg/kg

OC(Cn1cncn1)(Cn1cncn1)c1ccc(F)cc1F [FLU, fluconazole, reference compound]
Clearance of fungal infection (C. albicans MY1055; up to 5 mg/kg p.o. BID): did not result in clearance of fungal infection in any of the animals tested

CCCCCOc1ccc(-c2cc(-c3ccc(C(=O)N[C@H]4C[C@@H](O)[C@@H](O)NC(=O)[C@@H]5[C@@H](O)[C@@H](C)CN5C(=O)[C@H]([C@H](O)CC(N)=O)NC(=O)[C@H]([C@H](O)[C@@H](O)c5ccc(O)c(OS(=O)(=O)O)c5)NC(=O)[C@@H]5C[C@@H](O)CN5C(=O)[C@H]([C@@H](C)O)NC4=O)cc3)no2)cc1 [Micafungin, micafungin] (X1-[Orn(4R-OH,5R-OH)]T[Hyp][hTyr(3S-OH,4S-OH,3'-OSO3H)][Gln(3R-OH)][Pro(3S-OH,4S-Me)]; lactam 1-C)
Vd ss ([5]; i.v. ref 26): 0.38–0.49 ([26]) liters/kg
Vd ss [6]: 0.42–0.56 ([26]) liters/kg
Vd ss [7]: 0.23–0.25 ([26]) liters/kg
Vd ss ([2]; i.v. ref 30): 0.313 ([30]) liters/kg
Vd ss ([3]; i.v. ref 31): 0.21 to 0.24 L/kg
Vd ss ([3]; i.v. ref 32): 0.26 L/kg
Kidney/plasma ratio ([4]; after i.v. delivery to rodents ref 24): 3.4
